Reference: patent US7381724B2, “Optically active 5H-pyrrolo[3,4-b]pyrazine derivative, its preparation and pharmaceutical compositions containing same” (Sepracor Inc., priority 1991, dated 2008)

What was measured:
[1] = acute oral toxicity (LD50) in mice; details: mouse, in vivo, po
[2] = tested on: central benzodiazepine receptor sites; experiment: test of affinity for central benzodiazepine receptor sites; format: binding; details: relative to racemic zopiclone; technique of Blanchard and Julou
[3] = tested on: writhing reflex; experiment: writhing reflex test in mice; format: in vivo; details: relative to racemic zopiclone, technique of Zbinden and Randall
[4] = tested on: animals; experiment: pharmacological properties in animals; format: in vivo
[5] = tested on: pentetrazol-induced convulsions; experiment: test of antagonist activity with respect to pentetrazol-induced convulsions; format: in vivo; details: relative to racemic zopiclone; technique of Everett and Richards
[6] = tested on: mice; experiment: acute oral toxicity (LD50) in mice; details: for toxicity compared with the racemate: relative to racemic zopiclone

Structure (SMILES)	LD50 [1]	potency of action, affinity for central benzodiazepine receptor sites [2]	potency of action, writhing reflex test [3]	properties displayed in animals [4]	potency of action, antagonist activity with respect to pentetrazol-induced convulsions [5]	toxicity (LD50) ([6]; administered orally to mice)	toxicity compared with the racemate [6]
CN1CCN(C(=O)OC2c3nccnc3C(=O)N2c2ccc(Cl)cn2)CC1 (racemic) [zopiclone, 6-(5-chloro-2-pyridyl)-5-[(4-methyl-1-piperazinyl)carbonyloxy]-7-oxo-6,7-dihydro-5H-pyrrolo[3,4-b]pyrazine, reference compound]	~850 mg/kg	–	–	–	–	–	–
CN1CCN(C(=O)O[C@H]2c3nccnc3C(=O)N2c2ccc(Cl)cn2)CC1 (single isomer, unassigned) [dextrorotatory isomer]	–	approximately twice as active	approximately twice as active	hypnotic, sedative, anxiolytic, muscle-relaxant and anticonvulsant properties	approximately twice as active	~1.5 g/kg	lower toxicity than that of the racemate
CN1CCN(C(=O)O[C@@H]2c3nccnc3C(=O)N2c2ccc(Cl)cn2)CC1 (single isomer, unassigned) [laevorotatory isomer, reference compound]	–	almost inactive	almost inactive	–	almost inactive	–	more toxic than the racemate
